Test: mn = molality of the nth substance listed, in mol/kg
Conditions: for surface tension liquid-gas: Maximal bubble pressure; for mass density / electrical conductivity: 100 kPa, Liquid; for mass density: Vibrating tube method; for electrical conductivity: Frequency=0.003 MHz, Alternating current cell with electrodes

CCCCCCCCCCCCCCCCOCCOCCOCCOCCOCCOCCOCCOCCOCCOCCOCCOCCOCCOCCOCCOCCOCCOCCOCCOCCO + O
Conditions | mass density [kg/m3] | surface tension liquid-gas [mN/m]
298.15 K, m1 = 0.0005 | 995.7 | –
298.15 K, m1 = 0.00199 | – | 68.7
298.15 K, m1 = 0.00251 | – | 66
298.15 K, m1 = 0.00316 | – | 64.2
298.15 K, m1 = 0.00398 | – | 63.2
298.15 K, m1 = 0.00501 | – | 61.3
298.15 K, m1 = 0.00708 | – | 59.4
298.15 K, m1 = 0.01 | – | 56.9
298.15 K, m1 = 0.01413 | – | 55.3
298.15 K, m1 = 0.02239 | – | 53.2
298.15 K, m1 = 0.02818 | – | 52.4
298.15 K, m1 = 0.03162 | – | 52.1
298.15 K, m1 = 0.03981 | – | 52.1
298.15 K, m1 = 0.05 | 997.07 | –
298.15 K, m1 = 0.05012 | – | 51.9
298.15 K, m1 = 0.0631 | – | 51.9
303.15 K, m1 = 0.0005 | 995.58 | –
303.15 K, m1 = 0.002 | – | 65.5
303.15 K, m1 = 0.00251 | – | 64
303.15 K, m1 = 0.00316 | – | 62.5
303.15 K, m1 = 0.00398 | – | 61
303.15 K, m1 = 0.00501 | – | 59.5
303.15 K, m1 = 0.00708 | – | 57.5
303.15 K, m1 = 0.01 | – | 55.8
303.15 K, m1 = 0.01413 | – | 53
303.15 K, m1 = 0.02239 | – | 51
303.15 K, m1 = 0.02818 | – | 50.8
303.15 K, m1 = 0.03162 | – | 50.7
303.15 K, m1 = 0.03981 | – | 50.7
303.15 K, m1 = 0.05 | 996.92 | –
303.15 K, m1 = 0.05012 | – | 50.6
303.15 K, m1 = 0.0631 | – | 50.6
308.15 K, m1 = 0.0005 | 995.44 | –
308.15 K, m1 = 0.002 | – | 63.1
308.15 K, m1 = 0.00251 | – | 62.4
308.15 K, m1 = 0.00316 | – | 60.2
308.15 K, m1 = 0.00398 | – | 59.1
308.15 K, m1 = 0.00501 | – | 57.1
308.15 K, m1 = 0.00708 | – | 55.3
308.15 K, m1 = 0.01 | – | 53.6
308.15 K, m1 = 0.01429 | – | 51.2
308.15 K, m1 = 0.02239 | – | 49.4
308.15 K, m1 = 0.02818 | – | 48.8
308.15 K, m1 = 0.03162 | – | 48.3
308.15 K, m1 = 0.03981 | – | 48.3
308.15 K, m1 = 0.05 | 996.78 | –
308.15 K, m1 = 0.05012 | – | 48.3
308.15 K, m1 = 0.0631 | – | 48.3
313.15 K, m1 = 0.0005 | 995.3 | –
313.15 K, m1 = 0.002 | – | 61.8
313.15 K, m1 = 0.00251 | – | 60.2
313.15 K, m1 = 0.00316 | – | 58.3
313.15 K, m1 = 0.00398 | – | 57.1
313.15 K, m1 = 0.00501 | – | 55.5
313.15 K, m1 = 0.00708 | – | 53.6
313.15 K, m1 = 0.01 | – | 51.7
313.15 K, m1 = 0.01429 | – | 50
313.15 K, m1 = 0.02239 | – | 47.7
313.15 K, m1 = 0.02818 | – | 46.8
313.15 K, m1 = 0.03162 | – | 46.5
313.15 K, m1 = 0.03981 | – | 46.4
313.15 K, m1 = 0.05 | 996.64 | –
313.15 K, m1 = 0.05012 | – | 46.3
313.15 K, m1 = 0.0631 | – | 46.3

CCCCCCCCCCCCCCCC[n+]1ccccc1.[Br-] [1-hexadecylpyridinium bromide] + O
Conditions | electrical conductivity, 298.15 K [S/m] | electrical conductivity, 303.15 K [S/m] | electrical conductivity, 308.15 K [S/m] | electrical conductivity, 313.15 K [S/m] | mass density, 298.15 K [kg/m3] | mass density, 303.15 K [kg/m3] | mass density, 308.15 K [kg/m3] | mass density, 313.15 K [kg/m3]
m1 = 0.0005 | – | – | – | – | 996.54 | 995.89 | 995.18 | 994.58
m1 = 0.001 | 0.000196 | 0.000252 | 0.000326 | 0.000401 | – | – | – | –
m1 = 0.0015 | 0.000304 | 0.000359 | 0.000436 | 0.000536 | – | – | – | –
m1 = 0.0025 | 0.00044 | 0.000505 | 0.000566 | 0.000684 | – | – | – | –
m1 = 0.004 | 0.000742 | 0.000807 | 0.000884 | 0.00101 | – | – | – | –
m1 = 0.005 | 0.00105 | 0.0011 | 0.00109 | 0.00135 | – | – | – | –
m1 = 0.007 | 0.00135 | 0.00141 | 0.00148 | 0.00156 | – | – | – | –
m1 = 0.009 | 0.00174 | 0.0018 | 0.00187 | 0.00202 | – | – | – | –
m1 = 0.01 | 0.00192 | 0.00201 | 0.00206 | 0.00236 | – | – | – | –
m1 = 0.013 | 0.00236 | 0.00241 | 0.00247 | 0.00259 | – | – | – | –
m1 = 0.015 | 0.00263 | 0.00271 | 0.00276 | 0.00298 | – | – | – | –
m1 = 0.018 | 0.00313 | 0.0031 | 0.00318 | 0.00336 | – | – | – | –
m1 = 0.02 | 0.00345 | 0.0035 | 0.00349 | 0.00384 | – | – | – | –
m1 = 0.024 | 0.00403 | 0.00411 | 0.00416 | 0.00469 | – | – | – | –
m1 = 0.027 | 0.00443 | 0.00451 | 0.00458 | 0.00497 | – | – | – | –
m1 = 0.05 | – | – | – | – | 998.25 | 997.33 | 996.34 | 995.46

CCCCCCCCCCCCOS(=O)(=O)[O-].[Na+] [sodium dodecyl sulfate] + O
Conditions | electrical conductivity, 298.15 K [S/m] | electrical conductivity, 303.15 K [S/m] | electrical conductivity, 308.15 K [S/m] | electrical conductivity, 313.15 K [S/m] | mass density, 298.15 K [kg/m3] | mass density, 303.15 K [kg/m3] | mass density, 308.15 K [kg/m3] | mass density, 313.15 K [kg/m3]
m1 = 0.0005 | – | – | – | – | 994.78 | 994.12 | 993.69 | 993.15
m1 = 0.00086 | 0.000225 | 0.000289 | 0.000342 | 0.000403 | – | – | – | –
m1 = 0.00135 | 0.000346 | 0.000386 | 0.000457 | 0.000515 | – | – | – | –
m1 = 0.00161 | 0.000432 | 0.000497 | 0.000568 | 0.00063 | – | – | – | –
m1 = 0.00172 | 0.000542 | 0.000598 | 0.000663 | 0.000713 | – | – | – | –
m1 = 0.0023 | 0.000768 | 0.000813 | 0.00087 | 0.000946 | – | – | – | –
m1 = 0.00342 | 0.000984 | 0.00105 | 0.00113 | 0.0012 | – | – | – | –
m1 = 0.005 | 0.00144 | 0.0015 | 0.00159 | 0.00169 | – | – | – | –
m1 = 0.00681 | 0.00177 | 0.00193 | 0.00189 | 0.00207 | – | – | – | –
m1 = 0.0075 | 0.00203 | 0.00211 | 0.0022 | 0.00233 | – | – | – | –
m1 = 0.0108 | 0.00264 | 0.00269 | 0.00279 | 0.00295 | – | – | – | –
m1 = 0.01283 | 0.00293 | 0.00299 | 0.00305 | 0.00322 | – | – | – | –
m1 = 0.01582 | 0.00335 | 0.0034 | 0.00353 | 0.00373 | – | – | – | –
m1 = 0.01974 | 0.00392 | 0.00398 | 0.00412 | 0.00432 | – | – | – | –
m1 = 0.02351 | 0.00445 | 0.0044 | 0.00455 | 0.00468 | – | – | – | –
m1 = 0.02665 | 0.00483 | 0.00487 | 0.00487 | 0.00507 | – | – | – | –
m1 = 0.05 | – | – | – | – | 994.74 | 994.19 | 993.64 | 993.11

— the NIST ThermoML archive (doi:10.1021/je400667c)
